# Assay results reported in patent US20250100968A1, “BICYCLIC-HETEROCYCLE DERIVATIVES AND RELATED USES” (CENTESSA PHARMACEUTICALS (UK) LIMITED, priority 2022, published 2025).
# Target: T1, human orexin type 2 receptor (hOX2R) (Homo sapiens, UniProt O43614)
# T1 sequence (O43614 1-444): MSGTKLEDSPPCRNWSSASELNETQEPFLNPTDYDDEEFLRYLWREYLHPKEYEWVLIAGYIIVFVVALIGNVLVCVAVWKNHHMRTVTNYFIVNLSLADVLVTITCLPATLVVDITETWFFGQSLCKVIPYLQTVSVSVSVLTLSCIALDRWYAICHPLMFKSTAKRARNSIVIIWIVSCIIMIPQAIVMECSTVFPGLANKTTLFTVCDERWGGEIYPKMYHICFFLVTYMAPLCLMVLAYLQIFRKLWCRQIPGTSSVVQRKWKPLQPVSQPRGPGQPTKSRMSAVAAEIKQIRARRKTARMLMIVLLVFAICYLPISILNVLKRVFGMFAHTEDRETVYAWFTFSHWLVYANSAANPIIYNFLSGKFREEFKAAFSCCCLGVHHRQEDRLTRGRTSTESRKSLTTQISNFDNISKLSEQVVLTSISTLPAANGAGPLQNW
# Experiment: cell-based
# 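Further: agonist activity in CHO cells stably expressing hOX2R, intracellular Ca2+ via Calcium 5 dye fluorescence area over 2 min, buffer-only as 0% and 10 nM orexin A as 100%.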
# Method: Measurement of orexin type 2 receptor agonist activity. […] After removal of the medium, 50 μl of assay buffer 1 (0.1% bovine serum albumin (Sigma Aldrich), 20 mM HEPES (Molecular Dimensions), 250 mM probenecid (Sigma Aldrich), 1× Calcium 5 dye (Molecular Devices) in Hank's balanced salt solution (Invitrogen)) was added, and the cells were incubated for 60 min under the conditions of 37° C., 5% CO2. A test compound was dissolved in dimethyl sulfoxide (Sigma Aldrich) to 10 mM, and then diluted with assay buffer 2 (20 mM HEPES, Hank's balanced salt solution, 0.1% bovine serum albumin). For the reaction, a test compound solution (10 μl) was added using Fluorescent Imaging Plate Reader TETRA (FLIPR TETRA: manufactured by Molecular Devices), a fluorescence value (excitation wavelength 488 nm, measurement wavelength 570 nm) of each well was measured every one second for 2 min, and the agonist activity was determined using the area of the fluorescence value as an indicator of intracellular Ca^2+ concentration. The agonist activity of the test compound was calculated assuming that the fluorescence value of the well added with only the dilution buffer was 0% and the fluorescence value of the well added with 10 nM human orexin A (Tocris) buffer was 100%.
row,SMILES,EC50 [nM]
1,"O=C([C@@H](O)C1CC1)N1CC2(CC2)[C@H](NS(=O)(=O)CF)[C@@H]1Cc1cccc(-c2cc(F)cc(F)c2)c1F [compound 3, N-((6S,7S)-5-((S)-2-cyclopropyl-2-hydroxyacetyl)-6-((2,3′,5′-trifluoro-[1,1′-biphenyl]-3-yl)methyl)-5-azaspiro[2.4]heptan-7-yl)-1-fluoromethanesulfonamide]",10 to 100
2,"C[C@@H](NC(=O)N1CC2(CC2)[C@H](NS(=O)(=O)C(F)F)[C@@H]1Cc1cccc(-c2cc(F)cc(F)c2)c1F)C(F)F [compound 60, (6S,7S)-7-((difluoromethyl)sulfonamido)-N-((R)-1,1-difluoropropan-2-yl)-6-((2,3′,5′-trifluoro-[1,1′-biphenyl]-3-yl)methyl)-5-azaspiro[2.4]heptane-5-carboxamide]",1 to 10
3,"CO[C@H](C)C(=O)N1CC2(CC2)[C@H](NS(=O)(=O)C(F)F)[C@@H]1Cc1cccc(-c2cc(F)cc(F)c2)c1F [compound 64, 1,1-difluoro-N-((6S,7S)-5-((R)-2-methoxypropanoyl)-6-((2,3′,5′-trifluoro-[1,1′-biphenyl]-3-yl)methyl)-5-azaspiro[2.4]heptan-7-yl)methanesulfonamide]",1 to 10
4,"C[C@H](F)S(=O)(=O)N[C@@H]1[C@H](Cc2cc(F)cc(-c3cc(F)cc(F)c3)c2F)N(C(=O)[C@H]2CCO2)CC12CC2 [compound 58, (R)-1-fluoro-N-((6S,7S)-5-((R)-oxetane-2-carbonyl)-6-((2,3′,5,5′-tetrafluoro-[1,1′-biphenyl]-3-yl)methyl)-5-azaspiro[2.4]heptan-7-yl)ethane-1-sulfonamide]",1 to 10
5,"C[C@@H](F)S(=O)(=O)N[C@@H]1[C@H](Cc2cc(F)cc(-c3cc(F)cc(F)c3)c2F)N(C(=O)[C@H]2CCO2)CC12CC2 [compound 57, (S)-1-fluoro-N-((6S,7S)-5-((R)-oxetane-2-carbonyl)-6-((2,3′,5,5′-tetrafluoro-[1,1′-biphenyl]-3-yl)methyl)-5-azaspiro[2.4]heptan-7-yl)ethane-1-sulfonamide]",1 to 10
6,"CC(C)(F)CNC(=O)N1CC2(CC2)[C@H](NS(=O)(=O)CF)[C@@H]1Cc1cccc(-c2cccc(F)c2)c1F [compound 73, (6S,7S)-6-((2,3′-difluoro-[1,1′-biphenyl]-3-yl)methyl)-N-(2-fluoro-2-methylpropyl)-7-((fluoromethyl)sulfonamido)-5-azaspiro[2.4]heptane-5-carboxamide]",1 to 10
7,"O=C([C@H]1CCO1)N1CC2(CC2)[C@H](NS(=O)(=O)C2(F)CC2)[C@@H]1Cc1cc(F)cc(-c2ccccc2)c1F [compound 87, N-((6S,7S)-6-((2,5-difluoro-[1,1′-biphenyl]-3-yl)methyl)-5-((R)-oxetane-2-carbonyl)-5-azaspiro[2.4]heptan-7-yl)-1-fluorocyclopropane-1-sulfonamide]",1 to 10
8,"COC[C@@H](F)C(=O)N1CC2(CC2)[C@H](NS(=O)(=O)C(F)F)[C@@H]1Cc1cccc(-c2cc(F)cc(F)c2)c1F [compound 66, 1,1-difluoro-N-((6S,7S)-5-((R)-2-fluoro-3-methoxypropanoyl)-6-((2,3′,5′-trifluoro-[1,1′-biphenyl]-3-yl)methyl)-5-azaspiro[2.4]heptan-7-yl)methanesulfonamide]",1 to 10
9,"CO[C@H](C)C(=O)N1CC2(CC2)[C@H](NS(=O)(=O)CF)[C@@H]1Cc1cccc(-c2cc(F)cc(F)c2)c1F [compound 68, 1-fluoro-N-((6S,7S)-5-((R)-2-methoxypropanoyl)-6-((2,3′,5′-trifluoro-[1,1′-biphenyl]-3-yl)methyl)-5-azaspiro[2.4]heptan-7-yl)methanesulfonamide]",1 to 10
10,"O=C([C@H]1CCCO1)N1CC2(CC2)[C@H](NS(=O)(=O)C(F)F)[C@@H]1Cc1cccc(-c2cc(F)cc(F)c2)c1F [compound 50, 1,1-difluoro-N-((6S,7S)-5-((R)-tetrahydrofuran-2-carbonyl)-6-((2,3′,5′-trifluoro-[1,1′-biphenyl]-3-yl)methyl)-5-azaspiro[2.4]heptan-7-yl)methanesulfonamide]",1 to 10
11,"C[C@@H](NC(=O)N1CC2(CC2)[C@H](NS(=O)(=O)CF)[C@@H]1Cc1cccc(-c2cc(F)cc(F)c2)c1F)C(F)F [compound 4, (6S,7S)-N-((R)-1,1-difluoropropan-2-yl)-7-((fluoromethyl)sulfonamido)-6-((2,3′,5′-trifluoro-[1,1′-biphenyl]-3-yl)methyl)-5-azaspiro[2.4]heptane-5-carboxamide]",1 to 10
12,"N#C[C@]1(C(=O)N2CC3(CC3)[C@H](NS(=O)(=O)CF)[C@@H]2Cc2cc(F)cc(-c3ccccc3)c2F)C[C@H](F)C1 [compound 89, N-((6S,7S)-5-((1r,3S)-1-cyano-3-fluorocyclobutane-1-carbonyl)-6-((2,5-difluoro-[1,1′-biphenyl]-3-yl)methyl)-5-azaspiro[2.4]heptan-7-yl)-1-fluoromethanesulfonamide]",1 to 10
13,"O=C(NCC(F)F)N1CC2(CC2)[C@H](NS(=O)(=O)CF)[C@@H]1Cc1cccc(-c2cc(F)cc(F)c2)c1F [compound 15, (6S,7S)-N-(2,2-difluoroethyl)-7-((fluoromethyl)sulfonamido)-6-((2,3′,5′-trifluoro-[1,1′-biphenyl]-3-yl)methyl)-5-azaspiro[2.4]heptane-5-carboxamide]",1 to 10
14,"C[C@@H](F)S(=O)(=O)N[C@@H]1[C@H](Cc2cccc(-c3cc(F)cc(F)c3)c2F)N(C(=O)C2CCO2)CC12CC2 (mixture of isomers) [compound 43, (S)-1-fluoro-N-((6S,7S)-5-((RS)-oxetane-2-carbonyl)-6-((2,3′,5′-trifluoro-[1,1′-biphenyl]-3-yl)methyl)-5-azaspiro[2.4]heptan-7-yl)ethane-1-sulfonamide]",1 to 10
15,"O=C([C@H](O)CF)N1CC2(CC2)[C@H](NS(=O)(=O)C(F)F)[C@@H]1Cc1cccc(-c2cc(F)cc(F)c2)c1F [compound 8, 1,1-difluoro-N-((6S,7S)-5-((S)-3-fluoro-2-hydroxypropanoyl)-6-((2,3′,5′-trifluoro-[1,1′-biphenyl]-3-yl)methyl)-5-azaspiro[2.4]heptan-7-yl)methanesulfonamide]",1 to 10
16,"N#C[C@]1(C(=O)N2CC3(CC3)[C@H](NS(=O)(=O)CF)[C@@H]2Cc2cccc(-c3cccc(F)c3)c2F)CCO1 [compound 46, N-((6S,7S)-5-((S)-2-cyanooxetane-2-carbonyl)-6-((2,3′-difluoro-[1,1′-biphenyl]-3-yl)methyl)-5-azaspiro[2.4]heptan-7-yl)-1-fluoromethanesulfonamide]",1 to 10

# Now from value to compound:
row,EC50 [nM],SMILES
1,0.0631 to 1,"O=C([C@H]1CCO1)N1CC2(CC2)[C@H](NS(=O)(=O)C2(F)CC2)[C@@H]1Cc1cccc(-c2ccccc2)c1F [compound 10, 1-fluoro-N-((6S,7S)-6-((2-fluoro-[1,1′-biphenyl]-3-yl)methyl)-5-((R)-oxetane-2-carbonyl)-5-azaspiro[2.4]heptan-7-yl)cyclopropane-1-sulfonamide]"
2,0.0631 to 1,"O=C([C@@H](O)C1CC1)N1CC2(CC2)[C@H](NS(=O)(=O)C(F)F)[C@@H]1Cc1cc(F)cc(-c2ccccc2)c1F [compound 27, N-((6S,7S)-5-((S)-2-cyclopropyl-2-hydroxyacetyl)-6-((2,5-difluoro-[1,1′-biphenyl]-3-yl)methyl)-5-azaspiro[2.4]heptan-7-yl)-1,1-difluoromethanesulfonamide]"
3,0.0631 to 1,"COCC1(C(=O)N2CC3(CC3)[C@H](NS(C)(=O)=O)[C@@H]2Cc2cccc(-c3ccccc3)c2F)CC1 [compound 26, N-((6S,7S)-6-((2-fluoro-[1,1′-biphenyl]-3-yl)methyl)-5-(1-(methoxymethyl)cyclopropane-1-carbonyl)-5-azaspiro[2.4]heptan-7-yl)methanesulfonamide]"
4,0.0631 to 1,"C[C@@](O)(CF)C(=O)N1CC2(CC2)[C@H](NS(=O)(=O)CF)[C@@H]1Cc1cc(F)cc(-c2ccccc2)c1F [compound 72, N-((6S,7S)-6-((2,5-difluoro-[1,1′-biphenyl]-3-yl)methyl)-5-((S)-3-fluoro-2-hydroxy-2-methylpropanoyl)-5-azaspiro[2.4]heptan-7-yl)-1-fluoromethanesulfonamide]"
5,0.0631 to 1,"C[C@@H](F)C(=O)N1CC2(CC2)[C@H](NS(=O)(=O)CF)[C@@H]1Cc1cc(F)cc(-c2cccc(F)c2)c1F [compound 21, 1-fluoro-N-((6S,7S)-5-((R)-2-fluoropropanoyl)-6-((2,3′,5-trifluoro-[1,1′-biphenyl]-3-yl)methyl)-5-azaspiro[2.4]heptan-7-yl)methanesulfonamide]"
6,0.0631 to 1,"O=C(NCC(F)F)N1CC2(CC2)[C@H](NS(=O)(=O)C(F)F)[C@@H]1Cc1cc(F)cc(-c2cc(F)cc(F)c2)c1F [compound 25, (6S,7S)-N-(2,2-difluoroethyl)-7-((difluoromethyl)sulfonamido)-6-((2,3′,5,5′-tetrafluoro-[1,1′-biphenyl]-3-yl)methyl)-5-azaspiro[2.4]heptane-5-carboxamide]"
7,0.0631 to 1,"O=C(NCC(F)F)N1CC2(CC2)[C@H](NS(=O)(=O)C(F)F)[C@@H]1Cc1cccc(-c2cc(F)cc(F)c2)c1F [compound 28, (6S,7S)-N-(2,2-difluoroethyl)-7-((difluoromethyl)sulfonamido)-6-((2,3′,5′-trifluoro-[1,1′-biphenyl]-3-yl)methyl)-5-azaspiro[2.4]heptane-5-carboxamide]"
8,0.0631 to 1,"CC[C@@](C)(O)C(=O)N1CC2(CC2)[C@H](NS(=O)(=O)C(F)F)[C@@H]1Cc1cccc(-c2cc(F)cc(F)c2)c1F [compound 77, 1,1-difluoro-N-((6S,7S)-5-((R)-2-hydroxy-2-methylbutanoyl)-6-((2,3′,5′-trifluoro-[1,1′-biphenyl]-3-yl)methyl)-5-azaspiro[2.4]heptan-7-yl)methanesulfonamide]"
